Measured values reported in US20120015809A1 (priority 2009, published 2012).
Counter-ions that a name gives are not always drawn. Like-named read-outs stand apart in the source and are kept apart here.

System: Ralstonia solanacearum (race 1, biovar 1; tomato strain Rs5)
Details: 72 h; for Number of colonies: mean ± standard error (n = 6)

For `[H]/N=C(/N)N[C@H]1[C@H](O)[C@@H](O)[C@H](O[C@@H]2O[C@@H](C)[C@](O)(C=O)[C@H]2O[C@@H]2O[C@@H](CO)[C@H](O)[C@@H](O)[C@@H]2NC)[C@@H](N/C(N)=N\[H])[C@@H]1O` [Streptomycin, streptomycin sulfate], the “Mortality (%)” value (200 mg kg^−1 soil) was 0.9%, the Number of colonies (200 mg kg^−1 soil) was 256000 ± 16500 and the “Mortality (%)” value (400 mg kg^−1 soil) was 11.9%. The Number of colonies (400 mg kg^−1 soil) was 227000 ± 78100, the “Mortality (%)” value (800 mg kg^−1 soil) was 21.6% and the “Mortality (%)” value (800 mg kg^−1 soil, listed as streptomycin) was 21%. For the same compound, the Number of colonies (800 mg kg^−1 soil) was 204000 ± 82900, the “Mortality (%)” value (1500 mg kg^−1 soil) was 75.3% and the Number of colonies (1500 mg kg^−1 soil) was 63800 ± 42300.
